From US20120184548A1, “CARBOXYLIC ACID ARYL AMIDES” (priority 2011, published 2012)

How the values were obtained:
Human DYRK1A = biological target: T1, Human DYRK1A (Homo sapiens, UniProt Q13627); assay: DYRK1A Kinase TR-FRET (IMAP-Tb) Assay; assay type: biochemical; conditions: for IC50: TR-FRET, ATP 70 μM, 37° C. for 60 minutes, averages of multiple runs, read-out: Enzyme IC50 DYRK1A; for inhibition at 10 µM: 10 μM test compound, reported where IC50 was not determined, read-out: Enzyme DYRK1A % inhibition at 10 μM test compound concentration
T1 construct: purchased Invitrogen PV3997
From the text: The kinase TR-FRET (IMAP-Tb) assay uses a fluorescence labeled substrate peptide in the kinase reaction. Upon phosphorylation by the kinase, phosphopeptide is produced, which will be detected by the binding solution provided in IMAP TR-FRET binding kit. After the completion of the kinase reaction, the reaction will be stopped by adding the binding solution containing terbium tracer. This tracer is immobilized on the surface of the IMAP beads, which also contain metal ions on the beads that bind to the phospho-groups of the products. Thus the phosphorylated product of the reaction can enter into close proximity to the tracer, producing resonance energy transfer. Due to the long lifetime of terbium (Tb) fluorescence the detection can be run in time resolved mode, which virtually eliminates fluorescence interference from assay components or compounds.
The TR-FRET signal measurement from this assay, given as an IC50 measurement, is a measure of a test compound's ability to interfere with the phosphorylation of the peptide substrate, that is it inhibits the phosphorylation of the substrate peptide by DYRK1A, and is thus a measure of the test compound's ability to inhibit the activity of DYRK1A.
1. Human DYRK1A: from Invitrogen. Part # PV3997
2. Substrate Peptide: […]
3. IMAP TR-FRET IPP Explorer Kit: from Molecular Devices. Part # R8157 4. Kinase Assay Buffer (KAB): 10 mM HEPES pH 7.0, 50 mM NaCl, 5 mM MgCl2, 1 mM DTT, 1 mM NaVO4, 200 μg/mL BSA (0.02%) 5. Assay Plate: Remp polypropylene clear 384-well microplate. […] Detection Plate: Costa black 384-well microplate. […] Transfer 1.5 μL of 20× compound solution to each well of an assay plate. 2. Add to each well 22.5 μL of KAB Buffer. 3. Add to each well 3 μL of the solution of DYRK1A and ATP. […] Add to each well 3 μL of the substrate peptide. The assay concentration is 1.0 μM 5. Incubate the assay plates at 37° C. for 60 minutes. 6. Add 18 μL of Detection Solution (1:800 diluted Progress bead stock, 1:400 diluted Tb stock, 80% Buffer A, and 20% Buffer B) into each well of detection plates. 7. Transfer 6 μL of assay solution from the assay plate to the detection plate. 8. Shake detection plates for 30 minutes. 9. Read plates in Envision with wavelength set at excitation 340 nm for Tb, emission 490 nm, and […].

[1] = system: SW620 human colon cancer cells; assay: SW620 Cell Viability Assay (CellTiter-Glo); assay type: cell-based; conditions: SW-620, 96 h, 4 days incubation, read-out: Cellular EC50 SW620
Procedure: 1. Cell Plate Preparation: SW620 human colon cancer cells (known to express DYRK1B), obtained from ATCC, were seeded into 96-well plates at […] in 50 μL of media. • Harvested the required number of cells (counts & viability determined by Guava Viacount). • Centrifuge cells to pellet and removed supernant. • Resuspended in growth media (50 μL/well) & pipetted thoroughly to break up clumps. • Setup for ˜100 wells/plate, therefore, VT=5 mL/plate @ 1.2×10^5 cells/mL. 1A. Some cells (S-) were allowed to attach for 24 hrs, serum starved for 48 hrs, and then followed with treatments of test compound.
Test Compound solution was prepared in regular corresponding media supplemented with serum
2. Test Compound Preparation: Test compounds were solubilized in either DMSO or media and prepared at various stock concentrations. • All compounds were incubated at 37° C. for 30 minutes and vortexed. • (5 mM stocks of test compound were prepared for non-soluble drugs)
3. Test Compound Plate Preparation:
• The 10 mM test compound stock was diluted to a concentration of 100× the final Cmax concentration. • Then the test compound stock is diluted 50-fold in media and/or second test compound for a final Cmax concentration in the test compound plate. • The Cmax in the test compound plate (2% DMSO) is 2-fold higher than the final Cmax in the cell plate (60 uL titrations were 1:3). 4. Viability Assay: This assay was performed as follows: • Transfer 50 μL of test compound solution per well from the test compound plate onto the cell plate prepared in Step #1. • Mix the plate with treated cells by pipetting up and down three times with 200 μL multi-channel pipet. • Incubate the cells in 5% CO2 incubator @ 37° C. for 4 days. • Run the CellTiter-Glo™ Luminescent Cell Viability Assay. The results of this assay, given as EC50 values, indicate the concentration of test compound that inhibits tumor cell proliferation by 50%.

Human DYRK1B = biological target: T2, Human DYRK1B (Homo sapiens, UniProt Q9Y463); assay: DYRK1B Kinase TR-FRET (IMAP-Tb) Assay; assay type: biochemical; conditions: for IC50: TR-FRET, ATP 70 μM, 37° C. for 60 minutes, averages of multiple runs, read-out: Enzyme IC50 DYRK1B; for inhibition at 10 µM: 10 μM test compound, reported where IC50 was not determined, read-out: Enzyme DYRK1B % inhibition at 10 μM test compound concentration
T2 construct: purchased Invitrogen PR8350B (former PV4649)
From the text: The kinase TR-FRET (IMAP-Tb) assay uses a fluorescence labeled substrate peptide in the kinase reaction. Upon phosphorylation by the kinase, phosphopeptide is produced, which will be detected by the binding solution provided in IMAP TR-FRET binding kit. After the completion of the kinase reaction, the reaction will be stopped by adding the binding solution containing terbium tracer. This tracer is immobilized on the surface of the IMAP beads, which also contain metal ions on the beads that bind to the phospho-groups of the products. Thus the phosphorylated product of the reaction can enter into close proximity to the tracer, producing resonance energy transfer. Due to the long lifetime of terbium (Tb) fluorescence the detection can be run in time resolved mode, which virtually eliminates fluorescence interference from assay components or compounds. […] IC50 is the amount of test compound that inhibits 50% of the activity of DYRK1B in this assay. […] 1. Human DYRK1B: from Invitrogen. Part # PR8350B (former PV4649) 2. Substrate Peptide: RRRFRPASPLRGPPK 3. IMAP TR-FRET IPP Explorer Kit: from Molecular Devices. Part # R8157 4. Kinase Assay Buffer (KAB): 10 mM HEPES pH 7.0, 50 mM NaCl, 5 mM MgCl2, 1 mM DTT, 1 mM NaVO4, 200 μg/mL BSA (0.02%) 5. Assay Plate: Remp polypropylene clear 384-well microplate. Cat#23490-102 6. Detection Plate: Costa black 384-well microplate. Cat #3710 Assay Procedure: This assay was performed as follows: 1. Transfer 1.5 μL of 20× compound solution to each well of an assay plate. 2. Add to each well 22.5 μL of KAB Buffer. 3. Add to each well 3 μL of the solution of DYRK1B and ATP. […] Add to each well 3 μL of the substrate peptide. […] Incubate the assay plates at 37° C. for 60 minutes. 6. Add 18 μL of Detection Solution (1:800 diluted Progress bead stock, 1:400 diluted Tb stock, 80% Buffer A, and 20% Buffer B) into each well of detection plates. 7. Transfer 6 μL of assay solution from the assay plate to the detection plate. 8. Shake detection plates for 30 minutes. 9. Read plates in Envision with wavelength set at excitation 340 nm for Tb, emission 490 nm, and […]. 10. Calculation: TR-FRET Signal=(Reading at […])×2000000

T2 sequence (Q9Y463 whole entry): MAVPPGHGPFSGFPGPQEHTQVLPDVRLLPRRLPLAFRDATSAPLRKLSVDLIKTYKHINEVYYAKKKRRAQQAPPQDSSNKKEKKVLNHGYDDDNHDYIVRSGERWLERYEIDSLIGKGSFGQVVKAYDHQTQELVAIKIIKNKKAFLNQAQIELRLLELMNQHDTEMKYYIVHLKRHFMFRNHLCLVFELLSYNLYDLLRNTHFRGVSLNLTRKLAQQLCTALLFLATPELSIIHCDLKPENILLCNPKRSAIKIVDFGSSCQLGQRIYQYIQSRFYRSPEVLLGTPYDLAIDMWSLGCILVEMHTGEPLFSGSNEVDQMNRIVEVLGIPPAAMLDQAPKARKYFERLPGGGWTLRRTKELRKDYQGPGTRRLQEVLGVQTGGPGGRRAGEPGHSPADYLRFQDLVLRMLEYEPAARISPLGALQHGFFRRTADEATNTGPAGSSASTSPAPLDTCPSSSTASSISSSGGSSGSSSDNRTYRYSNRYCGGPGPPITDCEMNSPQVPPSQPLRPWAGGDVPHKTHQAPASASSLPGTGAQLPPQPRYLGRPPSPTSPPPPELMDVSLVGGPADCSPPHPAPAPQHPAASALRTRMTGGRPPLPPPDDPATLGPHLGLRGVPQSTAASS

| Compound | IC50 (Human DYRK1A) [nM] | EC50 [1] [nM] | IC50 (Human DYRK1B) [nM] | inhibition at 10 µM (Human DYRK1A) [%] | inhibition at 10 µM (Human DYRK1B) [%] |
| --- | --- | --- | --- | --- | --- |
| COc1cc2cc(C(=O)Nc3cc(C(=O)NC(CCN)c4ccccc4)ccc3C)c(=O)[nH]c2cc1OC (stereo in doubt) [Example 47, 6,7-Dimethoxy-2-oxo-1,2-dihydro-quinoline-3-carboxylic acid [5-((R)-3-amino-1-phenyl-propylcarbamoyl)-2-methyl-phenyl]-amide] | 85.5 | > 3000 | 14 |  |  |
| COCCOc1cc2cc(C(=O)Nc3cc(C(=O)NCc4cccc(Cl)c4)ccc3Cl)c(=O)[nH]c2cc1OC [Example 55, N-(2-Chloro-5-(3-chlorobenzylcarbamoyl)phenyl)-7-methoxy-6-(2-methoxyethoxy)-2-oxo-1,2-dihydroquinoline-3-carboxamide] | 48.9 | 129 | 37.3 |  |  |
| COc1cc2[nH]c(=O)c(C(=O)Nc3cc(C(=O)NC(CCN)c4ccccc4)ccc3C)cc2cc1OCCN1CCOCC1 (stereo not drawn) [Example 44, 7-Methoxy-6-(2-morpholin-4-yl-ethoxy)-2-oxo-1,2-dihydro-quinoline-3-carboxylic acid [5-(3-amino-1-phenyl-propylcarbamoyl)-2-methyl-phenyl]-amide] | 33.4 | > 3000 | 63 |  |  |
| COC(=O)c1ccc(C)c(NC(=O)c2cc3cc(OCCN4CCOCC4)c(OC)cc3[nH]c2=O)c1 [Example 39, 3-{[7-Methoxy-6-(2-morpholin-4-yl-ethoxy)-2-oxo-1,2-dihydro-quinoline-3-carbonyl]-amino}-4-methyl-benzoic acid methyl ester] | 150 | 3410 | 190 |  |  |
| COC(=O)c1ccc(C)c(NC(=O)c2cc3cc(OC)c(OC)cc3[nH]c2=O)c1 [Example 17, 3-[(6,7-Dimethoxy-2-oxo-1,2-dihydro-quinoline-3-carbonyl)-amino]-4-methyl-benzoic acid methyl ester] |  | > 10000 | 560 |  |  |
| COC(=O)c1ccc(Cl)c(NC(=O)c2cc3cc(OC)c(OC)cc3[nH]c2=O)c1 [Example 19, 4-Chloro-3-[(6,7-dimethoxy-2-oxo-1,2-dihydro-quinoline-3-carbonyl)-amino]-benzoic acid methyl ester] |  | > 10000 |  | 44 | 47 |
| COc1cc2cc(C(=O)Nc3cc(C(=O)NC(CN)c4cccc(Cl)c4)ccc3C)c(=O)[nH]c2cc1OC (stereo not drawn) [Example 50, 6,7-Dimethoxy-2-oxo-1,2-dihydro-quinoline-3-carboxylic acid {5-[2-amino-1-(3-chloro-phenyl)-ethylcarbamoyl]-2-methyl-phenyl}-amide] |  | 1130 | 73.2 |  |  |
| COc1cc2cc(C(=O)Nc3cc(C(=O)NC(CN)c4ccccc4)ccc3C)c(=O)[nH]c2cc1OC (stereo not drawn) [Example 31, 6,7-Dimethoxy-2-oxo-1,2-dihydro-quinoline-3-carboxylic acid [5-(2-amino-1-phenyl-ethylcarbamoyl)-2-methyl-phenyl]-amide] |  | 1920 | 141 |  |  |
| COC(=O)c1ccc(C)c(NC(=O)C2Cc3cc(OC)c(OC)cc3NC2=O)c1 (stereo not drawn) [Example 72, 3-[(6,7-Dimethoxy-2-oxo-1,2,3,4-tetrahydro-quinoline-3-carbonyl)-amino]-4-methyl-benzoic acid methyl ester] | 5590 |  | 1800 |  |  |
| COCCOc1cc2cc(C(=O)Nc3cc(C(=O)OC)ccc3C)c(=O)[nH]c2cc1OCCOC [Example 25, 3-{[6,7-Bis-(2-methoxy-ethoxy)-2-oxo-1,2-dihydro-quinoline-3-carbonyl]-amino}-4-methyl-benzoic acid methyl ester] | 604 |  | 911 |  |  |
| COc1cc2c(cc1OC)NC(=O)C(C(=O)Nc1cc(C(=O)NCc3ccccc3)ccc1C)C2 (stereo not drawn) [Example 74, 6,7-Dimethoxy-2-oxo-1,2,3,4-tetrahydro-quinoline-3-carboxylic acid (5-benzylcarbamoyl-2-methyl-phenyl)-amide] |  |  | > 10000 | 30 |  |
| COc1cc2cc(C(=O)Nc3cc(C(=O)NCC4CCCCC4)ccc3C)c(=O)[nH]c2cc1OC [Example 41, 6,7-Dimethoxy-2-oxo-1,2-dihydro-quinoline-3-carboxylic acid [5-(cyclohexylmethyl-carbamoyl)-2-methyl-phenyl]-amide] | 4590 |  | 2590 |  |  |
| COCCOCCOc1cc2cc(C(=O)Nc3cc(C(=O)NCc4cccc(Cl)c4)ccc3C)c(=O)[nH]c2cc1OC [Example 70, 7-Methoxy-6-[2-(2-methoxy-ethoxy)-ethoxy]-2-oxo-1,2-dihydro-quinoline-3-carboxylic acid [5-(3-chloro-benzylcarbamoyl)-2-methyl-phenyl]-amide] | 67 |  | 1690 |  |  |
| COc1cc2cc(C(=O)Nc3ccncc3Cl)c(=O)[nH]c2cc1OC [Example 36, 6,7-Dimethoxy-2-oxo-1,2-dihydro-quinoline-3-carboxylic acid (3-chloro-pyridin-4-yl)-amide] | 239 |  |  |  | 28 |
